Laboratory results: patent US6184231A, “3-substituted-4-arylquinolin-2-one derivatives as potassium channel modulators” (priority 1999, dated 2001)

Test system: intracavernous pressure (ICP/BP) response
Assay: in vivo model on erectile function, cavernous nerve stimulation
Parameters: species or system rat
Conditions: 0.1-1.0 mg/kg i.v., anesthetized rats
Text: The in vivo model on erectile function is described fully in the scientific literature [Rehman, J., Chenven, E., Brink, P. Peterson, B., Wolcott, B., Wen, Y. P., Melman, A., Christ, G.: Diminished neurogenic but not pharmacological erections in the 2- to 3-month experimentally diabetic F-344 rat. Am. J. Physiol. 272: H1960-H1971, (1997)]. Briefly, rats (250-600 g) were anesthetized using sodium pentobarbital, the abdomen opened and the cavernous nerve identified. A pressure catheter was placed in the right corpus cavernosum (crus) to measure intracavernous pressure (ICP). A second catheter was introduced into the carotid artery to measure blood pressure. Test compound (0.1, 0.3 and 1 mg/kg iV.) or vehicle (PEG 400) was given via a catheter placed into the jugular vein.
Control intracavernous pressure responses were elicited by electrically stimulating the cavernous nerve via bipolar stimulating electrodes (20 Hz, 0.22 ms pulse width). Stimulus amplitude (0.2-20 mA) was adjusted to produce a submaximal intracavernous pressure response (typically 0.2 or 0.5 mA). A series of control intracavernous pressure responses were then obtained using a constant stimulus amplitude. Test compound or vehicle was then administered (200 μl i.v bolus) and the cavernous nerve was restimulated to evoke a cavernous pressure response at various times post-drug administration. […]

Row | Compound | ICP/BP ratio elicited by sub-maximal stimulation of the cavernous nerve
1 | O=c1[nH]c2ccc(C(F)(F)F)cc2c(-c2cc(Cl)ccc2O)c1CCO [Example 20, 4-(5-Chloro-2-hydroxyphenyl)-3-(2-hydroxyethyl)-6-(trifluoromethyl)-2(1H)-quinolinone] | significant increase

Test system: cortical infarct volume
Assay: permanent focal ischemia, middle cerebral artery occlusion (MCAO) model
Format: in vivo, spontaneously hypertensive rat
Conditions: 0.003 mg/kg i.v. single bolus 2 hours after MCAO; infarct measured 24 hours after MCAO; vs vehicle-treated control
Text: To determine the ability of these compounds to reduce cell loss resulting from neuronal ischemia, a standard rodent model of permanent focal ischemia, involving occlusion of the middle cerebral artery in the spontaneously hypertensive rat (middle cerebral artery occlusion (MCAO) model) was employed [Tamura, A., et al., Journal of Cerebral Blood Flow and Metabolism, Volume 1, 53-60, (1981)].
Selected compounds have been evaluated in the focal stroke model involving permanent MCAO in the spontaneously hypertensive rat. This procedure results in a reliably large neocortical infarct volume that is measured by means of vital dye exclusion in serial slices through the brain 24 hours after MCAO. In the present test, compounds were administered using an intravenous route of administration at 2 hours after occlusion.

Row | Compound | reduction of cortical infarct volume
2 | COc1ccc(Cl)cc1-c1c(CCO)c(=O)[nH]c2ccc(C(F)(F)F)cc12 [Example 21, 4-(5-Chloro-2-methoxyphenyl)-3-(2-hydroxyethyl)-6-trifluoromethyl-2(1H)-quinolinone] | about 25%

Test system: cloned mammalian (mSlo or hSlo) BK channels
Assay: BK-mediated outward current, two-electrode voltage clamp in Xenopus oocytes
Format: cell-based
Conditions: at 20 μM; percent increase over BK current in controls; IBTX-sensitive current; at least 5 oocytes
Procedure: The ability of compounds described in the present invention to open BK channels and increase whole-cell outward (K^+) BK-mediated currents was assessed under voltage-clamp conditions by determining their ability to increase cloned mammalian (mSlo or hSlo) BK --mediated outward current heterologously expressed in Xenopus oocytes [Butler, A., et al., Science, 261: 221-224 (1993); and Dworetzky, S. I., et al., Mol. Brain Res., 27: 189-193 (1994)]. The two BK constructs employed represent nearly structurally identical homologous proteins, and have proven to be pharmacologically identical in our tests. To isolate BK current from native (background, non-BK) current, the specific and potent BK channel-blocking toxin iberiotoxin (IBTX) [Galvez, A., et al., J. Biol. Chem., 265: 11083-11090 (1990)] was employed at a supramaximal concentration (50 nM). The relative contribution of BK channels current to total outward current was determined by subtraction of the current remaining in the presence of IBTX (non-BK current) from the current profiles obtained in all other experimental conditions (control, drug, and wash). […] All compounds were tested in at least 5 oocytes and are reported at the single concentration of 20 μM; the effect of the selected compounds of Formula I on BK current was expressed as the percent of control IBTX-sensitive current and is listed in Table I. Recordings were accomplished using standard two-electrode voltage clamp techniques [Stuhmer, W., et al., Methods in Enzymology, Vol. 207: 319-339 (1992)]; voltage-clamp protocols consisted of 500-750 ms duration step depolarizations from a holding potential of -60 mV to +140 mV in 20 mV steps. The experimental media (modified Barth's solution) consisted of (in mM): NaCl (88), NaHCO3 (2.4), KCl (1.0), HEPES (10), MgSO4 (0.82), Ca(NO3)2 (0.33), CaCl2 (0.41); pH 7.5.

Row | Compound | BK Current
3 | COc1ccc(Cl)cc1-c1c(CO)c(=O)[nH]c2cc(C(F)(F)F)ccc12 [Example 3, 4-(5-Chloro-2-methoxyphenyl)-3-(hydroxymethyl)-7-(trifluoromethyl)-2(1H)-quinolinone] | + (+ = 100-200%)
4 | COc1ccc(Cl)cc1-c1c(C=O)c(=O)[nH]c2ccc(C(F)(F)F)cc12 [Example 4, 4-(5-Chloro-2-methoxyphenyl)-1,2-dihydro-2-oxo-6-(trifluoromethyl)-3-quinolinecarboxaldehyde] | + (+ = 100-200%)
5 | COc1ccc(Cl)cc1-c1c(CCCO)c(=O)[nH]c2ccc(C(F)(F)F)cc12 [Example 8, 4-(5-Chloro-2-methoxyphenyl)-3-(3-hydroxypropyl)-6-(trifluoromethyl)-2(1H)-quinolinone] | ++ (++ = >200%)
6 | O=c1[nH]c2ccc(C(F)(F)F)cc2c(-c2cc(Cl)ccc2O)c1CO [Example 9, 4-(5-Chloro-2-hydroxyphenyl)-3-(hydroxymethyl)-6-(trifluoromethyl)-2(1H)-quinolinone] | ++ (++ = >200%)
7 | O=c1[nH]c2ccc(C(F)(F)F)cc2c(-c2cc(Cl)ccc2O)c1/C=C(\F)CO [Example 17, (Z)-4-(5-Chloro-2-hydroxyphenyl)-3-(2-fluoro-3-hydroxy-1-propenyl)-6-(trifluoromethyl)-2(1H)-quinolinone] | + (+ = 100-200%)
8 | COc1ccc(Cl)cc1-c1c(/C=C(/F)CO)c(=O)[nH]c2ccc(C(F)(F)F)cc12 [Example 18, (E)-4-(5-Chloro-2-methoxyphenyl)-3-(2-fluoro-3-hydroxy-1-propenyl)-6-(trifluoromethyl)-2(1H)-quinolinone] | + (+ = 100-200%)
9 | O=c1[nH]c2ccc(C(F)(F)F)cc2c(-c2cc(Cl)ccc2O)c1CCO [Example 20, 4-(5-Chloro-2-hydroxyphenyl)-3-(2-hydroxyethyl)-6-(trifluoromethyl)-2(1H)-quinolinone] | ++ (++ = >200%)
10 | COc1ccc(Cl)cc1-c1c(CCO)c(=O)[nH]c2ccc(C(F)(F)F)cc12 [Example 21, 4-(5-Chloro-2-methoxyphenyl)-3-(2-hydroxyethyl)-6-trifluoromethyl-2(1H)-quinolinone] | ++ (++ = >200%)
11 | O=c1[nH]c2ccc(C(F)(F)F)cc2c(-c2cc(Cl)ccc2O)c1Cc1ccc(O)cc1 [Example 30, 4-(5-Chloro-2-hydroxyphenyl)-3-[(4-hydroxyphenyl)methyl]-6-(trifluoromethyl)-2(1H)-quinolinone] | ++ (++ = >200%)
12 | Nc1ccc(-c2c(-c3cc(Cl)ccc3O)c3cc(C(F)(F)F)ccc3[nH]c2=O)cc1 [Example 32, 4-(5-Chloro-2-hydroxyphenyl)-3-(4-aminophenyl)-6-(trifluoromethyl)-2(1H)-quinolinone] | ++ (++ = >200%)
13 | Cc1c(-c2cc(Cl)ccc2O)c2cc(C(F)(F)F)ccc2[nH]c1=O [Example 34, 4-(5-Chloro-2-hydroxyphenyl)-3-methyl-6-(trifluoromethyl)-2(1H)-quinolinone] | ++ (++ = >200%)
14 | COc1ccc(Cl)cc1-c1c(C=NO)c(=O)[nH]c2ccc(C(F)(F)F)cc12 [Example 39, 4-(5-Chloro-2-methoxyphenyl)-1,2-dihydro-2-oxo-6-(trifluoromethyl)-3-quinolinecarboxaldehyde oxime] | ++ (++ = >200%)
